{"source": "patent US20040197838A1", "about": "“Phosphorylated histone h2b as apoptosis marker” (priority 2001, published 2004)", "key": {"HL-60 cells [1]": {"tested_on": "HL-60 cells", "assay": "Apoptotic DNA fragmentation (DNA ladder) after VP-16 treatment", "format": "cell-based, human", "experimental": "Genomic DNA was harvested by lysing the cell pellet in 10 mM Tris pH 9.0, 1 mM EDTA, 10 mM NaCl, 1% w/v SDS, 1 mg/mL of proteinase K at 50° C. for 4-5 hours. To remove proteins, a phenol/chloroform extraction was performed and then the DNA was precipitated in 0.3 M sodium acetate and 70% Ethanol. After centrifugation, the pellet was resuspended in TE and the RNA was digested by adding 1 mg/mL Rnase A for 1 hour at room temp. DNA was separated in 1.2% agarose TAE gel.\n(§1) Initially, HL-60 (human leukemia cell line) cells were treated with etoposide (VP-16) to induce apoptosis. After treatment for various length of time, histones were isolated by acid extraction and examined by Western blot using the S14P antibody. […] To confirm the induction of apoptosis, soluble DNA was extracted from parallel samples at identical time points. The appearance of a ‘DNA ladder’, indicative of apoptotic DNA fragmentation at 4 hour post treatment, coincides precisely with the onset of H2B Ser14 phosphorylation. Furthermore, an increase of H2B S14 phosphorylation was observed that correlates with the exposure time to the etoposide."}, "HL-60 cells [2]": {"tested_on": "HL-60 cells", "assay": "Western blots of histones from HL-60 cells after cytotoxic agent treatment", "format": "cell-based, human", "conditions": "for Levels of H2B S14 Phons Induction: etoposide 20 ug/mL, anisomycin 25 ng/mL, anti-Fas 15 ng/mL", "experimental": "(§2) Cell culture, drug and UV treatment, and harvesting for protein and DNA: HL-60 cells were cultured in RPMI with 10% FBS whereas 293T, HeLa, HepG2, and IMR90 were grown in DMEM with 10% FBS. Etoposide, anisomycin, […] and anti-Fas were purchased from Sigma. To induce apoptosis, drugs were used in these concentration 20 ug/mL for etoposide, 25 ng/mL anisomycin and 15 ng/mL anti-Fas. For UV induction of apoptosis, 40-100 J/m^2 was used (Biorad GS Gene Linker UV chamber). After induction of apoptosis the growth media was changed and harvested at various times afterward. Control cells were either treated with DMSO or mock-treated.\n(§3) After the desired treatment, cells were subjected to any of the following: resuspension in SDS-lysis buffer (Laemmli's sample buffer), nuclear extraction, acid extraction for histones, or genomic DNA extraction. Nuclei were isolated by lysis in detergent and low speed spin as described in Strahl et al., (2001) Curr Biol 11, 996-1000. These nuclei can either be salt extracted for nuclear proteins (see below) or acid extracted in 0.4 N H2SO4. After incubating on ice for 2-4 hours, high speed centrifugation is done to remove the insoluble pellet. 5.4% of Percholic acid was added to the supernatant and the precipitated histones were resuspended in water.\n(§4) Western blot analysis is performed as described in (Briggs et al., (2001) Genes Dev 15, 3286-3295) 1:1000 of α-phos (S14) H2B, 1:2500 of α-N-Mst1, 1:400 of α-myc (9E10 from Santa Cruz), 1:800 of α-PARP (UBI), 1:1000 of α-phos H2A.X (UBI), and 1:5000 of ax-Acetyl H4 primary antibodies were used. HRP-conjugated rabbit secondary (Amersham Pharmacia) was used at 1:5000. For chemiluminescence, the ECL plus kit (Amersham Pharmacia) was used for detection.\nas §1\n(§5) After Cytotoxic agent treatments, cells were harvested. The level of H2B S14 phosphorylation is determined by Western blots using ePhos (S14) H2B."}, "HL-60 cells [3]": {"tested_on": "HL-60 cells", "assay": "Caspase 3 inhibitor pre-incubation before VP16, Western analysis of Mst1 cleavage and H2B Ser14 phosphorylation", "format": "cell-based, human", "conditions": "then VP16 for 4 hours", "experimental": "as §4\nIf H2B (Ser14) phosphorylation is dependent on the cleavage of Mst1, this histone modification should be sensitive to documented caspase 3 inhibitors such as the DEVD peptide. To test this prediction, HL-60 cells were pre-incubated with varying amounts of z-DEVD-fmk (Trevigen) before subsequent treatment with VP16 for 4 hours. Cell extracts were then harvested for western analysis. […] Accordingly, H2B is likely phosphorylated in vivo at Ser14 by the caspase 3-generated form of Mst1."}, "HepG2": {"tested_on": "HepG2", "assay": "Western blot for H2B S14 phosphorylation after cytotoxic agent treatment", "format": "cell-based", "experimental": "as §2\nas §3, with “5.4% of Percholic acid was added to the supernatant and the precipitated histones were resuspended in water.” left out\nas §5"}, "[4]": {"target": "histone H2B (substrate of the in vitro kinase reactions)"}}, "data": [{"molecule": "COc1cc([C@@H]2c3cc4c(cc3[C@@H](O[C@@H]3O[C@@H]5CO[C@@H](C)O[C@H]5[C@H](O)[C@H]3O)[C@H]3COC(=O)[C@H]23)OCO4)cc(OC)c1O", "note": "[Etoposide (VP16), Etoposide]", "values": [{"measurement": "Time post treatment of appearance of DNA ladder (apoptotic DNA fragmentation)", "setting": "HL-60 cells [1]", "result": 4, "unit": "h"}, {"measurement": "Time of H2A.X phosphorylation after treatment", "setting": "HL-60 cells [2]; Western blot", "result": "one"}, {"measurement": "Time post treatment at which H2B phosphorylation signal is strongly enhanced", "setting": "HL-60 cells [2]; Western blot with S14P antibody", "result": "around 4 hours"}, {"measurement": "Levels of H2B S14 Phons Induction", "setting": "HL-60 cells [2]; Western blot", "result": "High"}]}, {"molecule": "COc1ccc(C[C@H]2NC[C@H](O)[C@H]2OC(C)=O)cc1", "note": "[Anisomycin]", "values": [{"measurement": "Levels of H2B S14 Phons Induction", "setting": "HL-60 cells [2]; Western blot", "result": "High"}]}, {"molecule": "z-DEVD-fmk", "values": [{"measurement": "H2B phosphorylation", "setting": "HL-60 cells [3]; 20 mM inhibitor", "result": "only a modest decrease"}, {"measurement": "Proportion of truncated Mst1 over full length Mst1", "setting": "HL-60 cells [3]; 20 mM inhibitor", "result": "only a modest decrease"}, {"measurement": "H2B Ser14 phosphorylation", "setting": "HL-60 cells [3]; 200 mM inhibitor", "result": "inhibited"}, {"measurement": "Mst1 cleavage", "setting": "HL-60 cells [3]; 200 mM inhibitor", "result": "inhibited"}]}, {"molecule": "COS(C)(=O)=O", "note": "[MMS]", "values": [{"measurement": "Levels of H2B S14 Phons Induction", "setting": "HepG2", "result": "Medium"}]}, {"molecule": "myc-tagged full length Mst1 (protein) METVQLRNPPRRQLKKLDEDSLTKQPEEVFDVLEKLGEGSYGSVYKAIHKETGQIVAIKQVPVESDLQEIIKEISIMQQCDSPHVVKYYGSYFKNTDLWIVMEYCGAGSVSDIIRLRNKTLTEDEIATILQSTLKGLEYLHFMRKIHRDIKAGNILLNTEGHAKLADFGVAGQLTDTMAKRNTVIGTPFWMAPEVIQEIGYNCVADIWSLGITAIEMAEGKPPYADIHPMRAIFMIPTNPPPTFRKPELWSDNFTDFVKQCLVKSPEQRATATQLLQHPFVRSAKGVSILRDLINEAMDVKLKRQESQQREVDQDDEENSEEDEMDSGTMVRAVGDEMGTVRVASTMTDGANTMIEHDDTLPSQLGTMVINAEDEEEEGTMKRRDETMQPAKPSFLEYFEQKEKENQINSFGKSVPGPLKNSSDWKIPQDGDYEFLKSWTVEDLQKRLLALDPMMEQEIEEIRQKYQSKRQPILDAIEAKKRRQQNF", "values": [{"measurement": "IP kinase reaction with non-radioactive ATP, Western blot with the S14P antibody", "setting": "[4]", "result": "both Mst1 FL and DC phosphorylate H2B at Ser14 as detected by the S14P antibody"}, {"measurement": "in vitro kinase assay on myc immunoprecipitates, with g(32P)-ATP or cold ATP", "setting": "[4]", "result": "Strong phosphorylation of H2B was detected with both full length and DC Mst1"}]}, {"molecule": "myc-tagged C-terminal truncated form of Mst1 (protein) METVQLRNPPRRQLKKLDEDSLTKQPEEVFDVLEKLGEGSYGSVYKAIHKETGQIVAIKQVPVESDLQEIIKEISIMQQCDSPHVVKYYGSYFKNTDLWIVMEYCGAGSVSDIIRLRNKTLTEDEIATILQSTLKGLEYLHFMRKIHRDIKAGNILLNTEGHAKLADFGVAGQLTDTMAKRNTVIGTPFWMAPEVIQEIGYNCVADIWSLGITAIEMAEGKPPYADIHPMRAIFMIPTNPPPTFRKPELWSDNFTDFVKQCLVKSPEQRATATQLLQHPFVRSAKGVSILRDLINEAMDVKLKRQESQQREVDQDDEENSEEDEMD", "values": [{"measurement": "IP kinase reaction with non-radioactive ATP, Western blot with the S14P antibody", "setting": "[4]", "result": "both Mst1 FL and DC phosphorylate H2B at Ser14 as detected by the S14P antibody"}, {"measurement": "in vitro kinase assay on myc immunoprecipitates, with g(32P)-ATP or cold ATP", "setting": "[4]", "result": "Strong phosphorylation of H2B was detected with both full length and DC Mst1"}]}, {"molecule": "myc-tagged kinase dead Mst1 (protein) METVQLRNPPRRQLKKLDEDSLTKQPEEVFDVLEKLGEGSYGSVYKAIHKETGQIVAIRQVPVESDLQEIIKEISIMQQCDSPHVVKYYGSYFKNTDLWIVMEYCGAGSVSDIIRLRNKTLTEDEIATILQSTLKGLEYLHFMRKIHRDIKAGNILLNTEGHAKLADFGVAGQLTDTMAKRNTVIGTPFWMAPEVIQEIGYNCVADIWSLGITAIEMAEGKPPYADIHPMRAIFMIPTNPPPTFRKPELWSDNFTDFVKQCLVKSPEQRATATQLLQHPFVRSAKGVSILRDLINEAMDVKLKRQESQQREVDQDDEENSEEDEMDSGTMVRAVGDEMGTVRVASTMTDGANTMIEHDDTLPSQLGTMVINAEDEEEEGTMKRRDETMQPAKPSFLEYFEQKEKENQINSFGKSVPGPLKNSSDWKIPQDGDYEFLKSWTVEDLQKRLLALDPMMEQEIEEIRQKYQSKRQPILDAIEAKKRRQQNF", "values": [{"measurement": "in vitro kinase assay on myc immunoprecipitates, with g(32P)-ATP or cold ATP", "setting": "[4]", "result": "the kinase dead form Mst1 (which contains a single point mutation) did not phosphorylate H2B"}]}]}
